Like-named read-outs stand apart in the source and are kept apart here.
Assays:
T. vivax [1] = experiment: T. vivax EC50 (from Mabille et al.); type: cell-based, Trypanosoma vivax; conditions: from Table 8 data
L. mexicana SUPKO = experiment: microbe, parasite or virus in culture; type: cell-based, Leishmania mexicana
Procedure, shortened: (§1)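 Reported figures represent means over a minimum of three separate-day experiments. In every experiment, EC50 is obtained by nonlinear fitting to a variable-slope sigmoid.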

L. mexicana SUPKO+TcoAT1 = experiment: microbe, parasite or virus in culture; type: cell-based, Leishmania mexicana; conditions: for EC50: read-out: SUPKO+TcoAT1 EC50
Procedure, shortened: as §1

L. mexicana SUPKO+TvxNT3 = experiment: microbe, parasite or virus in culture; type: cell-based, Leishmania mexicana; conditions: read-out: SUPKO+TvxNT3 EC50
Procedure, shortened: as §1

TvxNT3 = TvxNT3 (Trypanosoma vivax, UniProt F9WV62); experiment: cell-based; type: cell-based; conditions: for δ(ΔG0): difference in ΔG0 relative to the parent purine (adenosine or inosine)
Chain of TvxNT3 (F9WV62 entry or part of it): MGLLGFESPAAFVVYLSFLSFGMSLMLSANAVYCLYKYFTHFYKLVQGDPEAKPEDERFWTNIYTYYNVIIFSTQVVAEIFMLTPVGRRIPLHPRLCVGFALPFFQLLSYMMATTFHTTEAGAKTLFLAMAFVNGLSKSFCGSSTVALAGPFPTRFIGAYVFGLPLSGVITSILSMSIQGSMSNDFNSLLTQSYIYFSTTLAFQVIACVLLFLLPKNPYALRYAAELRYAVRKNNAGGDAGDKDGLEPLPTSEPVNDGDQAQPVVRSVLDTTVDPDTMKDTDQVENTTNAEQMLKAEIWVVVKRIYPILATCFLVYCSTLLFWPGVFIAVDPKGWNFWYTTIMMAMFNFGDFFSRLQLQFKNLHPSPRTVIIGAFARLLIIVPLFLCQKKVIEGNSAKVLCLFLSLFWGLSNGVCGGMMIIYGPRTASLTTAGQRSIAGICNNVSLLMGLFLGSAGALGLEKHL
Procedure, shortened: (§2)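 Transporter genes were expressed in an L. mexicana line lacking NT1 and NT2 (SUPKO), and 1 × 10^7 cells in HEPES/bicarbonate buffer pH 7.3 took up radiolabeled permeant through an oil layer, with or without inhibitor. Uptake was stopped with ice-cold unlabeled substrate or by centrifugation, and pellets were counted. IC50 against radiolabeled adenosine was converted to Ki by Cheng–Prusoff using the permeant Km.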

T. vivax [2] = tested on: T. vivax; design: method as in Mabille et al. [69]; conditions: added for comparison only; ref Mabille et al. [69]; cited from earlier work
T.b.b. B48 [3] = tested on: T.b.b. B48; design: method as in Hulpia et al. [38]; conditions: compound marked *; ref Hulpia et al. [38]; cited from earlier work
T. congolense IL3000 [4] = tested on: T. congolense IL3000; design: method as in Hulpia et al. [38]; conditions: values marked *; ref Hulpia et al. [38]; cited from earlier work
T. congolense IL3000 [5] = experiment: Alamar Blue (resazurin) assay, T. congolense IL3000; type: cell-based, Trypanosoma congolense
Procedure, shortened: as §1

T. congolense 6C3 [6] = experiment: microbe, parasite or virus in culture; type: cell-based, Trypanosoma congolense
Procedure, shortened: as §1

[7] = molecular target: T. congolense adenosine transporter; experiment: [3H]-adenosine uptake and its inhibition in T. congolense IL3000 bloodstream forms; type: cell-based, Trypanosoma congolense; conditions: for Ki: 0.05 µM [3H]-adenosine, 30 s, IC50 converted to Ki, read-out: Ki on the transport of [3H]-adenosine
Procedure, shortened: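 Bloodstream-form T. congolense IL3000 (1 × 10^7 cells) in HEPES/bicarbonate buffer pH 7.3 took up [3H]-adenosine over a set interval, with or without inhibitor, ending by ice-cold unlabeled substrate stop or centrifugation through oil. Pellet radioactivity gave IC50 by sigmoid fit; Ki followed by Cheng–Prusoff using adenosine Km.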

T. b. brucei = conditions: also CNS stage; oral and intraperitoneal administration; cited from earlier work
T. evansi = tested on: T. evansi; design: method as in Hulpia et al. [38]; conditions: compound marked *; ref Hulpia et al. [38]; cited from earlier work
L. mexicana Cas9 = experiment: Resazurin drug sensitivity assay, LmexCas9; type: cell-based, Leishmania mexicana; conditions: read-out: LmexCas9 EC50
Procedure, shortened: as §1

TcoAT1 = type: cell-based, Trypanosoma congolense; conditions: for Ki: 0.05 µM [3H]-adenosine, 10 s, IC50 converted to Ki, read-out: Ki on the transport of [3H]-adenosine; for ΔG0: Gibbs free energy of binding, from Km or Ki; for δ(ΔG0): loss of Gibbs free energy of binding relative to the parent nucleoside
Procedure, shortened: as §2

T. congolense 6C3 [8] = tested on: T. congolense 6C3; design: method as in Hulpia et al. [38]; conditions: values marked *; ref Hulpia et al. [38]; cited from earlier work
T.b.b. B48 [9] = experiment: Alamar Blue (resazurin) assay, T. b. brucei B48; type: cell-based, Trypanosoma brucei brucei
Procedure, shortened: as §1

[10] = tested on: human embryonic kidney (HEK) cells; experiment: Resazurin toxicity assay on human embryonic kidney cells; type: cell-based
Procedure, shortened: as §1

T. equiperdum = tested on: T. equiperdum; design: method as in Hulpia et al. [38]; conditions: compound marked *; ref Hulpia et al. [38]; cited from earlier work
[11] = molecular target: T. b. brucei P1 (TbP1/NT2); conditions: cited from earlier work
T. brucei TbAT1-KO = conditions: cited from earlier work
[12] = tested on: T. congolense IL3000-based cell line expressing TbAT1; experiment: Resazurin drug sensitivity assay, T. congolense IL3000 expressing TbAT1; design: species or system Trypanosoma congolense; conditions: three independent clones, p < 0.0001
Procedure: EC50 values were determined by plotting to an equation for a sigmoid curve with variable slope (GraphPad Prism 8). All values were the average of at least three independent determinations on different days.

T. brucei wild type = conditions: cited from earlier work
T. brucei cells = tested on: T. brucei cells; design: method as in PMID 30475806; conditions: T. brucei cells treated with the drug; cited from earlier work

Q: For `Nc1ncnc2c1ccn2C1OC(CO)CC1O` (stereo not shown) [FH7429_d, 3′-deoxytubercidin], which “fold higher EC50 against T. vivax compared to T. congolense” value (T. vivax [1]) is on record?
A: 10–165 fold

Q: What about the “SUPKO RF (Cas9)” value (L. mexicana SUPKO; Resistance Factor = EC50(SUPKO)/EC50(Cas9)) of the same molecule?
A: >6.63

Q: And the EC50 (L. mexicana SUPKO; resazurin, promastigotes, read-out: SUPKO EC50)?
A: > 100 µM

Q: What about the “SUPKO+TcoAT1 RF (SUPKO)” value (L. mexicana SUPKO+TcoAT1; Resistance Factor relative to SUPKO) of the same molecule?
A: >1.53

Q: And the EC50 (L. mexicana SUPKO+TcoAT1; resazurin, promastigotes)?
A: 65.3 ± 7.6 µM

Q: What about the EC50 (L. mexicana SUPKO+TvxNT3; resazurin, promastigotes) of the same molecule?
A: > 100 µM

Q: And the Ki (TvxNT3; 50 nM [3H]-adenosine, 90 s, IC50 converted to Ki, read-out: Ki on the transport of [3H]-adenosine)?
A: 388 ± 13 µM

Q: What about the ΔG0 (TvxNT3; Gibbs free energy of interaction, from Km or Ki) of the same molecule?
A: -4.66 kcal/mol

Q: And the EC50 (T. vivax [2])?
A: 3.48 ± 0.09 µM

Q: What about the EC50 (T.b.b. B48 [3]) of the same molecule?
A: 0.25 ± 0.02 µM

Q: And the EC50 (T. congolense IL3000 [4])?
A: 0.021 ± 0.001 µM

Q: And the “fold more potent than tubercidin” value (T. congolense IL3000 [5]; against T. congolense)?
A: 150 fold

Q: What about the “T. congolense 6C3 RF” value (T. congolense 6C3 [6]; resistance factor = EC50 (test strain)/EC50(control strain)) of the same molecule?
A: 0.91

Q: And the Ki [7]?
A: 319 ± 93 µM

Q: And the “ΔG0, Gibbs free energy of interaction” value ([7]; calculated from Km or Ki)?
A: -4.76 kcal/mol

Q: And the “outcome in T. b. brucei mouse model” value (T. b. brucei)?
A: curative

Q: What about the EC50 (T. evansi) of the same molecule?
A: 0.017 ± 0.002 µM

Q: What about the EC50 (L. mexicana Cas9; resazurin, promastigotes) of the same molecule?
A: 15.1 ± 1.7 µM

Q: What about the Ki (TcoAT1) of the same molecule?
A: 810 ± 60 µM

Q: And the ΔG0 (TcoAT1)?
A: -4.3 kcal/mol

Q: What about the EC50 (T. congolense 6C3 [8]) of the same molecule?
A: 0.019 ± 0.002 µM

Q: And the “fold more potent than tubercidin” value (T.b.b. B48 [9]; against T. b. brucei B48)?
A: 17.2 fold

Q: And the EC50 ([10]; resazurin, 96 well plates, read-out: HEK EC50)?
A: > 200 µM

Q: And the “SI T. equiperdum” value ([10]; selectivity index = EC50 (HEK cells)/EC50 (T. equiperdum))?
A: >76,000

Q: And the “SI T. evansi” value ([10]; selectivity index = EC50 (HEK cells)/EC50 (T. evansi))?
A: >11,800

Q: And the EC50 (T. equiperdum)?
A: 0.0026 ± 0.0006 µM

Q: For `Nc1ncnc2c1ccn2[C@@H]1O[C@H](CO)[C@@H](O)[C@H]1O` [Tubercidin, 7-deazaadenosine], which EC50 (L. mexicana SUPKO; Leishmania mexicana, read-out: SUPKO EC50, resazurin, promastigotes) is on record?
A: > 100 µM

Q: And the EC50 (L. mexicana SUPKO+TcoAT1; Leishmania mexicana)?
A: > 100 µM

Q: What about the EC50 (L. mexicana SUPKO+TvxNT3; Leishmania mexicana) of the same molecule?
A: > 100 µM

Q: And the Ki ([11]; T. b. brucei bloodstream forms, read-out: Tbb P1 Ki)?
A: 78 ± 6.4 µM

Q: What about the “Tbb P1 ΔG0” value [11] of the same molecule?
A: -5.59 kcal/mol

Q: And the EC50 (T. brucei TbAT1-KO)?
A: 4.3 ± 1.3 µM

Q: And the “δ(ΔG0)” value (TvxNT3)?
A: -3.148 kcal/mol

Q: What about the “δ(ΔG0)” value (TvxNT3; listed as tubercidin) of the same molecule?
A: 3.15 kcal/mol

Q: And the EC50 (T. congolense IL3000 [5]; Trypanosoma congolense, read-out: T. congolense IL3000 EC50)?
A: 3.16 ± 0.5 µM

Q: What about the EC50 (T. congolense 6C3 [6]; Trypanosoma congolense, diminazene resistant strain, resazurin, read-out: T. congolense 6C3 EC50) of the same molecule?
A: 1.83 ± 0.39 µM

Q: And the Ki [7]?
A: 403 ± 120 µM

Q: And the “effect of TbAT1 expression on sensitivity” value [12]?
A: highly significant sensitization

Q: And the EC50 (L. mexicana Cas9; Leishmania mexicana)?
A: 0.44 ± 0.06 µM

Q: What about the EC50 (T. brucei wild type) of the same molecule?
A: 0.15 ± 0.03 µM

Q: What about the Ki (TcoAT1) of the same molecule?
A: 754 ± 54.3 µM

Q: What about the ΔG0 (TcoAT1) of the same molecule?
A: -4.25 kcal/mol

Q: What about the “δ(ΔG0)” value (TcoAT1) of the same molecule?
A: 4.441 kcal/mol

Q: And the “δ(ΔG0)” value (TcoAT1; listed as tubercidin)?
A: 4.45 kcal/mol

Q: And the EC50 (T.b.b. B48 [9]; Trypanosoma brucei, read-out: T.b.b. B48 EC50)?
A: 4.3 ± 1.3 µM

Q: For `Nc1nc(N)nc(Nc2ccc([As]3SCC(CO)S3)cc2)n1` (stereo not shown) [melarsoprol], which “cells bearing conjoined nuclei and double kinetoplasts” value (T. brucei cells) is on record?
A: > 10%
